Where a SMILES comes first, the peptide text is derived from it. Where no end group is shown, it is not given here. The star is where a group is joined. X1 = CN1/C(=C/C=C/C=C/C2=[N+](CCCCCC(=O)*)c3ccc4ccccc4c3C2(C)C)C(C)(C)c2c1ccc1ccccc21
Columns and labels:
cMet [1] = molecular target: T1, cMet (Homo sapiens, UniProt P08581); test: Competition of unlabeled peptide for QQT*-Cy5.5 binding to HT29 cells; conditions: unlabeled peptide 0, 25, 50, 100, 200 and 400 μM, then 5 μM Cy5.5-labeled peptide, 3 replicate slides, 5 cells per slide
T1 construct: endogenous in cells; host or cells: HT29 human colorectal cancer cells (ATCC)
Experimental: Unlabeled peptides at 0, 25, 50, 100, 200 and 400 μM were first added and then incubated with 5 μM of Cy5.5-labeled peptides. […] The cells were fixed with 4% PFA, and mounted with ProLong Gold reagent containing DAPI.

CCD841 cells = test: Alamar blue growth assay, CCD841 cells; assay type: cell-based, human; conditions: 48 hours, 37 °C; HGF 25 ng/mL or QQT*-Cy5.5 5 or 100 μM; 3 independent experiments
Experimental: (§1) An alamar blue assay was performed using HT29 and CCD841 cells. After culturing in serum free media overnight, ~3 × 10^3 cells were seeded per well in serum free media in 96 well plates at a final volume of 100 µL per well. […] Alamar blue reagent (10 µL) was added in amounts equal to 10% of the volume in the well, and incubated at 37 °C for 4 hours. Fluorescence with excitation at λex = 530–560 nm, and emission at λex = 590 nm was measured.

[2] = tested on: vascular endothelial growth factor A (VEGFA); conditions: IRDye800-labeled, intravenous, n = 17 FAP patients, cited from earlier work
Text: Large molecules, such as antibodies, that have high target affinity are also being utilized for CRC imaging. Bevacizumab is a monoclonal antibody that has been repurposed for imaging by labeling with IRDye800 to detect overexpressed vascular endothelial growth factor A (VEGFA)[46]. This imaging agent was intravenously administered in a total of n = 17 patients with familial adenomatous polyposis (FAP), and n = 51 adenomas were detected. A median T/B ratio = 1.84 was achieved using a dose of 25 mg. Small adenomas with dimensions< 3 mm were detected. Antibodies have long circulation times that l ...

cMet [3] = molecular target: T1, cMet; test: Confocal microscopy of binding to HT29 cells with siRNA knockdown of cMet
Experimental: (§2) The cells were blocked with 1X PBS plus 2% BSA for 1 hour at 4 °C, and were incubated with 5 μM of peptide for 10 min at room temperature (RT) in the dark, washed 3×, and fixed with 4% PFA for 5 min, washed with 1X PBS, and then mounted on glass slides with ProLong Gold reagent containing DAPI (Invitrogen). A 1:3000 dilution of primary monoclonal rabbit anti-cMet antibody (#8198, Cell Signaling Technology) was incubated with the cells in vitro as a positive control. Afterwards, the cells were incubated with a 1:500 dilution of AF488-labeled secondary goat ant-rabbit immunoglobulin G antibody (#A-11029, Life Technologies), and then mounted on glass slides with ProLong Gold reagent containing DAPI. Confocal fluorescence images were collected using a 63X oil-immersion objective (Leica SP5 Inverted 2-Photon FLIM confocal). Fluorescence intensities were quantified using custom Matlab software (Mathworks).
Expression of cMet by HT29 cells was knocked down using siRNA (siRNA1, SASI_Hs01_00133002, Sigma). MISSION® siRNA Universal Negative Control (SIC001, Sigma) was used for control. Cells were transfected with Lipofectamine 2000 (11668027, Invitrogen) per manufacturer instructions, and incubated with 5 μM of peptide for 5 min. A 1:3000 dilution of primary monoclonal rabbit anti-cMet antibody (Cell Signaling Technology, #8198) was used for positive control.

cMet [4] = molecular target: T1, cMet; test: Confocal microscopy of binding to HT29 (cMet+) versus SW480 (cMet-) CRC cells
Experimental: as §2

cMet [5] = test: Confocal microscopy of binding to S114 (cMet+) versus NIH3T3 (cMet-) cells; design: species or system mouse
Experimental: Human HT29, SW480, CCD841 colorectal cancer cells and mouse NIH 3T3 embryonic fibroblast cells were obtained from the ATCC. S114 cells (NIH 3T3 cells transformed to express cMet) were provided by courtesy of G Vande Woude (Van Andel Institute). McCoy’s 5A Medium (Gibco) was used for HT29 cells. Dulbecco’s Modified Eagle Medium (Gibco) were used for SW480, NIH3T3, and S114 cells. Eagle’s Minimum Essential Medium (Lonza) was used for CCD841. All cells were cultured at 37 °C in 5% CO2, and supplemented with 10% fetal bovine serum. Reagents for peptide synthesis were obtained from Anaspec (Anaspec) and AAPPTEC (AAPPTEC) at the highest available grade (>99% purity), and were used without further purification. Solvents and other chemical reagents were purchased (Sigma-Aldrich) unless stated otherwise.
as §2

cMet [6] = test: In vivo fluorescence endoscopy of colonic adenomas in CPC;Apc mice; design: species or system mouse; conditions: intra-rectal 100 μM, 1.5 mL, control peptide 3 days later
Experimental: CPC;Apc mice were used for in vivo imaging. This mouse was genetically engineered to sporadically delete an adenomatous polyposis coli (APC) allele under control of a Cdx2 promoter (CDX2P-9.5NLS-Cre) to spontaneously form either flat or polypoid adenomas in the distal colon. Prior to imaging, the mice were fasted for 4–6 hours. Anesthesia was induced and maintained via a nose cone with inhaled isoflurane mixed with oxygen at concentrations of 2–4% at a flow rate of 0.5 L/min. A rigid small animal endoscope (Karl Storz Veterinary Endoscopy) was inserted into the rectum. White-light illumination was used first to identify the presence of adenomas. Peptides (100 μM, 1.5 mL) were delivered intra-rectally through the instrument channel. After 5 min for incubation, the colon was rinsed with warm tap water 3X to remove stool and debris prior to image collection. After 3 days for the signal from the target peptide to clear, the same mice were imaged using the control peptide. A ratio of the fluorescence and reflectance images was determined to correct for differences in distance and geometry over the image field-of-view (FOV)[33]. […] The mean fluorescence intensity was used to calculate the target-to-background (T/B) ratios. Images were processed and analyzed using custom software in Matlab (Mathworks)[34].

mouse cMet-ECD = test: Pull-down assay with mouse cMet-ECD; assay type: binding; conditions: peptide immobilized on EHS beads; Western blot; by comparison with TLQ*
Experimental: Interactions between peptide and mouse cMet were evaluated using a pull-down assay. Peptides were immobilized on EHS active beads (17-0906-01, GE), and incubated with purified mouse cMet-ECD protein (50622-M08H, Sino Biological). After washing, bound proteins were detected by Western blot.

p-cMet = test: Western blot of p-cMet in HT29 cells; assay type: cell-based, human; conditions: HT29, serum-starved; HGF 25 ng/mL or QQT*-Cy5.5 5 or 100 μM; 10, 30, 120 min
Experimental: (§3) Peptides are added at concentrations of 5 and 100 μM for 10, 30, and 120 min. Anti-cMet antibody (#8198, Cell Signaling), phospho-cMet (Tyr1234/1235) antibody (#3077, Cell Signaling), anti-AKT (#4691, Cell Signaling), anti-phospho-AKT (#9271, Cell Signaling), anti-ERK1/2 (#ab17942, Abcam,), anti-phospho-ERK1/2 (#ab50011, Abcam), and anti-tubulin (#32-2600, Invitrogen) were used per manufacturer’s instructions.

p-AKT = test: Western blot of p-AKT in HT29 cells; assay type: cell-based, human; conditions: HT29, serum-starved; HGF 25 ng/mL or QQT*-Cy5.5 5 or 100 μM; 10, 30, 120 min
Experimental: as §3

p-ERK1/2 = test: Western blot of p-ERK1/2 in HT29 cells; assay type: cell-based, human; conditions: HT29, serum-starved; HGF 25 ng/mL or QQT*-Cy5.5 5 or 100 μM; 10, 30, 120 min
Experimental: as §3

HT29 cells = test: Alamar blue growth assay, HT29 cells; assay type: cell-based, human; conditions: 48 hours, 37 °C; HGF 25 ng/mL or QQT*-Cy5.5 5 or 100 μM; 3 independent experiments
Experimental: as §1

[7] = molecular target: T2, cMet on human HT29 CRC cells (human (endogenous in HT29), UniProt P08581 25-1390); test: flow cytometry on cells; HT29 cells incubated with peptide at 0-200 nM for 1 hour at 4 °C; apparent dissociation constant by nonlinear regression; conditions: one partner purified
T2 construct: cMet, transmembrane tyrosine kinase receptor (hepatocyte growth factor receptor), human; Alpha and beta chains are cut from one precursor; written as one chain; also called HT29 cells (cMet+); source: endogenous, on HT29 cells

[8] = molecular target: T2, cMet on human HT29 CRC cells; test: immunostaining of cells or tissue; confocal fluorescence microscopy of cells incubated with 5 μM Cy5.5-labeled peptide (5-10 min, RT), washed, fixed with 4% PFA; HT29 transfected with siCL or sicMet; HT29 versus SW480; S114 versus NIH3T3; conditions: one partner purified
[9] = 6 replicate slides per condition, 10 cells per slide

T2 sequence (P08581 25-1390): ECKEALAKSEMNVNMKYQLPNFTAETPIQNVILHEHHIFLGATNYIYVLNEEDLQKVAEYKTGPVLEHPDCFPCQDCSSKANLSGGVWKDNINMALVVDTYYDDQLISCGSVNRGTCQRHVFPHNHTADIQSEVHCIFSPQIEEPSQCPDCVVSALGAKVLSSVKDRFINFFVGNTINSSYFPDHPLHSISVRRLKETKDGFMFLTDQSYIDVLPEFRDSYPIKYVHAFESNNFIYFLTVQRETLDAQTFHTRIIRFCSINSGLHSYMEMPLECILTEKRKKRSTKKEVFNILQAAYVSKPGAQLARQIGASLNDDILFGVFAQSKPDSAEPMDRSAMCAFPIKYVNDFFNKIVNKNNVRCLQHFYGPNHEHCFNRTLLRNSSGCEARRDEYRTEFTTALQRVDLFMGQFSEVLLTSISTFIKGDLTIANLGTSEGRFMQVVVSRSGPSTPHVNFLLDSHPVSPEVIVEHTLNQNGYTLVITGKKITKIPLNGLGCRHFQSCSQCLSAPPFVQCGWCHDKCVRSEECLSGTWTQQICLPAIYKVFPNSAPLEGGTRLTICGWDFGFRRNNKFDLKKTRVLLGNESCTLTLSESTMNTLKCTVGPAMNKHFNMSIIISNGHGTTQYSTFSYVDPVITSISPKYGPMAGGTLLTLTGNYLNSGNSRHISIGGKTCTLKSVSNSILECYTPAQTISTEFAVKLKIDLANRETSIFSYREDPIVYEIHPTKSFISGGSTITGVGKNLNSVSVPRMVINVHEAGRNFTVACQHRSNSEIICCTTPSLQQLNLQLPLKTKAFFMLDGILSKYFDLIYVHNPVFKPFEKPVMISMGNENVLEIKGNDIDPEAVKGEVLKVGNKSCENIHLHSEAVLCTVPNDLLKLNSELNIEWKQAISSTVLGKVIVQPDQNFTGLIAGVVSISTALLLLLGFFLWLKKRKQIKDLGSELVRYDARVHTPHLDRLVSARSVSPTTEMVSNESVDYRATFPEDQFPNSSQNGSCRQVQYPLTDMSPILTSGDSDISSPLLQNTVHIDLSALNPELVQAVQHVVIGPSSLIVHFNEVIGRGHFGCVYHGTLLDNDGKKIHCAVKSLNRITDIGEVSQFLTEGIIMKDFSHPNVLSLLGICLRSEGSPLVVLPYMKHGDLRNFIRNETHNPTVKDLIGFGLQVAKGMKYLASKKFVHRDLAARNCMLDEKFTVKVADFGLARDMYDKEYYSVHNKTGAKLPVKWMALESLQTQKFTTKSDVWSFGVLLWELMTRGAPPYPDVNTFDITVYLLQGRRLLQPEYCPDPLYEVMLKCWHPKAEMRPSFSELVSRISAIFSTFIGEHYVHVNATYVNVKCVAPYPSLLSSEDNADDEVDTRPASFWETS
T1 sequence (P08581 25-1390): as above

For “TLQWNQS [TLQ*, unlabeled control peptide TLQ*]”, which “Competition: fluorescence intensity of QQT*-Cy5.5 binding with increasing unlabeled peptide” value (cMet [1]) is on record?
The value was “not with TLQ*”.

Which “Growth of CCD841 normal colon cells” value (CCD841 cells) does the source give for CC(C)C[C@H](NC(=O)[C@H](CO)NC(=O)[C@H](Cc1c[nH]c2ccccc12)NC(=O)[C@H](CC(N)=O)NC(=O)[C@@H](NC(=O)[C@H](CCC(N)=O)NC(=O)[C@@H](N)CCC(N)=O)[C@@H](C)O)C(=O)NCC(=O)NCC(=O)NCC(=O)N[C@@H](CO)C(=O)N[C@@H](CCCCNC(=O)CCCCC[N+]1=C(/C=C/C=C/C=C2/N(C)c3ccc4ccccc4c3C2(C)C)C(C)(C)c2c1ccc1ccccc21)C(N)=O [QQT*-Cy5.5] (H-QQTNWSLGGGSK(X1)-NH2) here?
The value was “no effect on growth”.

Which “Median T/B ratio” value ([2]; 25 mg) does the source give for “Bevacizumab: monoclonal antibody repurposed for imaging by labeling with IRDye800 to detect overexpressed VEGFA” here?
Its value is 1.84.

What about the “Dimensions of small adenomas detected” value [2] of the same molecule?
The value was < 3 mm.

And the “Number of adenomas detected” value [2]?
The value was 51.

Which “Change in fluorescence intensity, siCL versus sicMet (in words)” value (cMet [3]; HT29, ANOVA on log-transformed data, 6 replicate slides per condition) does the source give for TLQWNQS [TLQ*-Cy5.5] here?
Its value is “non-significant decrease”.

What about the “Binding to surface of HT29 cells transfected with siCL (control)” value (cMet [3]; HT29 siCL, peptide 5 μM, antibody 1:3000, confocal fluorescence) of the same molecule?
The value was “minimal binding”.

And the “Binding to HT29 cells transfected with sicMet (cMet knockdown)” value (cMet [3]; HT29 sicMet, peptide 5 μM, 5 min, antibody 1:3000, confocal fluorescence)?
Its value is “little binding”.

And the “Change in mean intensity, HT29 versus SW480 (in words)” value (cMet [4]; [9])?
Its value is “non-significant decrease”.

And the “Binding to surface of HT29 cells (cMet+)” value (cMet [4]; HT29, confocal, peptide 5 μM 10 min RT, antibody 1:3000)?
The value was “minimal binding”.

What about the “Binding to SW480 cells (cMet-)” value (cMet [4]; SW480, confocal, peptide 5 μM 10 min RT, antibody 1:3000) of the same molecule?
The value was “minimal binding”.

What about the “Change in mean intensity, S114 versus NIH3T3 (in words)” value (cMet [5]; [9]) of the same molecule?
The value was “non-significant increase”.

And the “Binding to NIH3T3 cells (cMet-)” value (cMet [5]; NIH3T3, confocal, peptide 5 μM 10 min RT, antibody 1:3000)?
The value was “nominal binding”.

What about the “Binding to surface of S114 cells (cMet+)” value (cMet [5]; S114, confocal, peptide 5 μM 10 min RT, antibody 1:3000) of the same molecule?
The value was “minimal binding”.

What about the “Fluorescence from representative polyp” value (cMet [6]) of the same molecule?
Its value is “minimal signal”.

What about the “Fluorescence from representative flat lesion” value (cMet [6]; same lesion) of the same molecule?
Its value is “minimal signal”.

For QQTNWSL [QQT*], which “Competition: fluorescence intensity of QQT*-Cy5.5 binding with increasing unlabeled peptide” value (cMet [1]) is on record?
The value was “decreased significantly”.

And the “Pull-down band for binding to mouse cMet-ECD” value (mouse cMet-ECD)?
Its value is “strong band”.

Which results are given for “HGF: recombinant human hepatocyte growth factor (HGF, 294-HG-005, R&D), a known ligand for cMet”?
Phosphorylation of cMet (p-cMet) (p-cMet): strong phosphorylation activity; Phosphorylation of downstream AKT (p-AKT) (p-AKT): strong phosphorylation activity; Phosphorylation of downstream ERK1/2 (p-ERK1/2) (p-ERK1/2): strong phosphorylation activity; Growth of HT29 cells (HT29 cells): increased growth; Growth of CCD841 normal colon cells (CCD841 cells): not (C) CCD841 cells

B1: QQT*-Cy5.5 (peptide)
peptide: QQTNWSLGGGSK-{Cy5.5}
modifications: not fully specified
notes: heptapeptide selected by phage display (Ph.D.-7 library) against the extra-cellular domain of cMet; linker between the peptide and Cy5.5; also called QQTNWSL; cMet peptide; source: synthetic peptide (Fmoc solid-phase synthesis, purified with HPLC)
Which Kd [7] does the source give for B1 here?
The Kd was 57 nM.

What about the “fold change of fluorescence intensity against TLQ*-Cy5.5” value [8] of the same molecule?
The value was 8.1 fold.

What about the “fold change of fluorescence intensity, siCL versus sicMet transfected cells” value [8] of the same molecule?
The value was 2.9 fold.
